The target of this experiment is GDP-loaded KRAS G12D (Homo sapiens, UniProt P01116, G12D). The experiment can be described thus: KRAS G12D Probe Displacement Assay. Format: binding. The following applies: KRAS G12D 0.5 nM, biotinylated probe 2 4 nM; Table 6 letters; read-out: KRAS G12D Probe Displacement Assay IC50 (class).
Chain of GDP-loaded KRAS G12D (P01116 1-188 isoform P01116-2 G12D): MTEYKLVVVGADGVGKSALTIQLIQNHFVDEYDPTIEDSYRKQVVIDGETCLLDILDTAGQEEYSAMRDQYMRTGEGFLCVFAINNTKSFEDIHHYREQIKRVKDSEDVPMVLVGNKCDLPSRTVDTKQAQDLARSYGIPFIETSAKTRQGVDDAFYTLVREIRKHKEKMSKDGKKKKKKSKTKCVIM

Usually IC50 stands for the concentration that inhibits the measured activity by half. Regarding `N#CC1(F)CC(Oc2nc(N3CC4CCC(C3)N4)c3cc(C(F)(F)F)c(-c4ccc(F)c5sc(N)nc45)c(F)c3n2)C1` (stereo not drawn) [Example E151, 3-((7-(2-amino-7-fluorobenzo[d]thiazol-4-yl)-4-(3,8-diazabicyclo[3.2.1]octan-3-yl)-8-fluoro-6-(trifluoromethyl)quinazolin-2-yl)oxy)-1-fluorocyclo butane-1-carbonitrile], the half-inhibitory concentration (IC50) was below 50 nM. In the case of `Nc1nc2c(-c3c(C(F)(F)F)cc4c(N5CC6CCC(C5)N6)nc(OCC56COC(C5)C6)nc4c3F)ccc(F)c2s1` [Example E152, 4-(2-((2-oxabicyclo[2.1.1]hexan-4-yl)methoxy)-4-(3,8-diazabicyclo[3.2.1]octan-3-yl)-8-fluoro-6-(trifluoromethyl)quinazolin-7-yl)-7-fluorobenzo[d] thiazol-2-amine], the IC50 is below 50 nM. Take `Nc1nc2c(-c3c(C(F)(F)F)cc4c(N5CC6CCC(C5)N6)nc(OCC(F)(F)CO)nc4c3F)ccc(F)c2s1` [Example E153, 3-((7-(2-amino-7-fluorobenzo[d]thiazol-4-yl)-4-(3,8-diazabicyclo [3.2.1]octan-3-yl)-8-fluoro-6-(trifluoromethyl)quinazolin-2-yl)oxy)-2,2-difluoropropan-1-ol]: the half-inhibitory concentration (IC50) is below 50 nM. `Nc1nc2c(-c3c(C(F)(F)F)cc4c(N5CC6CCC(C5)N6)nc(OCC5(CO)CCC5)nc4c3F)ccc(F)c2s1` [Example E154, (1-(((7-(2-amino-7-fluorobenzo[d]thiazol-4-yl)-4-(3,8-diazabicyclo[3.2.1]octan-3-yl)-8-fluoro-6-(trifluoromethyl)quinazolin-2-yl)oxy)methyl)cyclobutyl) methanol]: the IC50 was below 50 nM. `N#CC1(CCOc2nc(N3CC4CCC(C3)N4)c3cc(C(F)(F)F)c(-c4ccc(F)c5sc(N)nc45)c(F)c3n2)CC1` [Example E155]: the IC50 was below 50 nM. Regarding `COC1(COc2nc(N3CC4CCC(C3)N4)c3cc(C(F)(F)F)c(-c4ccc(F)c5sc(N)nc45)c(F)c3n2)CC1` [Example E156], the half-maximal inhibitory concentration (IC50) is below 50 nM.

For `N#CC1(COc2nc(N3CC4CCC(C3)N4)c3cc(C(F)(F)F)c(-c4ccc(F)c5sc(N)nc45)c(F)c3n2)CCCCC1` [Example E157, 1-(((7-(2-amino-7-fluorobenzo[d]thiazol-4-yl)-4-(3,8-diazabicyclo [3.2.1]octan-3-yl)-8-fluoro-6-(trifluoromethyl)quinazolin-2-yl)oxy)methyl)cyclohexane-1-carbonitrile], the IC50 is below 50 nM. As for `Nc1nc2c(-c3c(C(F)(F)F)cc4c(N5CC6CCC(C5)N6)nc(OCC5(CO)CC(F)C5)nc4c3F)ccc(F)c2s1` (stereo not drawn) [Example E158, (1-(((7-(2-amino-7-fluorobenzo[d]thiazol-4-yl)-4-(3,8-diazabicyclo[3.2.1]octan-3-yl)-8-fluoro-6-(trifluoromethyl)quinazolin-2-yl)oxy)methyl)-3-fluorocyclobutyl)methanol], the IC50 is below 50 nM. In the case of `Nc1nc2c(-c3c(C(F)(F)F)cc4c(N5CC6CCC(C5)N6)nc(OC5CCOCC5F)nc4c3F)ccc(F)c2s1` (stereo not drawn) [Example E159, 4-(4-(3,8-diazabicyclo[3.2.1]octan-3-yl)-8-fluoro-2-((3-fluorotetra hydro-2H-pyran-4-yl)oxy)-6-(trifluoromethyl)quinazolin-7-yl)-7-fluorobenzo[d]thiazol-2-amine], the IC50 was below 50 nM.

On to `Nc1nc2c(-c3c(C(F)(F)F)cc4c(N5CC6CCC(C5)N6)nc(OC5CCS(=O)(=O)CC5)nc4c3F)ccc(F)c2s1` [Example E160], for which the IC50 is below 50 nM. `Nc1nc2c(-c3c(C(F)(F)F)cc4c(N5CC6CCC(C5)N6)nc(OCCCC5COC5)nc4c3F)ccc(F)c2s1` [Example E161]: the concentration for half-maximal inhibition (IC50) was below 50 nM. On to `Nc1nc2c(-c3c(C(F)(F)F)cc4c(N5CC6CCC(C5)N6)nc(OCC56CC(CO)(C5)C6)nc4c3F)ccc(F)c2s1` [Example E162, (3-(((7-(2-amino-7-fluorobenzo[d]thiazol-4-yl)-4-(3,8-diazabicyclo[3.2.1]octan-3-yl)-8-fluoro-6-(trifluoromethyl)quinazolin-2-yl)oxy)methyl)bicyclo[1.1.1]pentan-1-yl)methanol], for which the concentration for half-maximal inhibition (IC50) was below 50 nM. On to `Nc1nc2c(-c3c(C(F)(F)F)cc4c(N5CC6CCC(C5)N6)nc(OCC5CC6CCC(C5)O6)nc4c3F)ccc(F)c2s1` (stereo not drawn) [Example E163, 4-(2-((8-oxabicyclo[3.2.1]octan-3-yl)methoxy)-4-(3,8-diazabicyclo[3.2.1]octan-3-yl)-8-fluoro-6-(trifluoromethyl)quinazolin-7-yl)-7-fluorobenzo[d]thiazol-2-amine], for which the IC50 is below 50 nM. As for `CC(=O)N1CC(COc2nc(N3CC4CCC(C3)N4)c3cc(C(F)(F)F)c(-c4ccc(F)c5sc(N)nc45)c(F)c3n2)C1` [Example E164, 1-(3-(((7-(2-amino-7-fluorobenzo[d]thiazol-4-yl)-4-(3,8-diazabicyclo[3.2.1]octan-3-yl)-8-fluoro-6-(trifluoromethyl)quinazolin-2-yl)oxy)methyl)azetidin-1-yl)ethan-1-one], the concentration for half-maximal inhibition (IC50) was below 50 nM. On to `Nc1nc2c(-c3c(C(F)(F)F)cc4c(N5CC6CCC(C5)N6)nc(OCC56CCC(CC5)OC6)nc4c3F)ccc(F)c2s1` [Example E165, 4-(2-((2-oxabicyclo[2.2.2]octan-4-yl)methoxy)-4-(3,8-diazabicyclo[3.2.1]octan-3-yl)-8-fluoro-6-(trifluoromethyl)quinazolin-7-yl)-7-fluorobenzo[d]thiazol-2-amine], for which the IC50 is below 50 nM. Turning to `CC1(COc2nc(N3CC4CCC(C3)N4)c3cc(C(F)(F)F)c(-c4ccc(F)c5sc(N)nc45)c(F)c3n2)CCO1` (stereo not drawn) [Example E166, 4-(4-(3,8-diazabicyclo[3.2.1]octan-3-yl)-8-fluoro-2-((2-methyloxetan-2-yl)methoxy)-6-(trifluoromethyl)quinazolin-7-yl)-7-fluorobenzo[d]thiazol-2-amine], the half-maximal inhibitory concentration (IC50) was below 50 nM. `COC1CC(Oc2nc(N3CC4CCC(C3)N4)c3cc(C(F)(F)F)c(-c4ccc(F)c5sc(N)nc45)c(F)c3n2)C1` (stereo not drawn) [Example E167, 4-(4-(3,8-diazabicyclo[3.2.1]octan-3-yl)-8-fluoro-2-(3-methoxycyclobutoxy)-6-(trifluoromethyl)quinazolin-7-yl)-7-fluorobenzo[d]thiazol-2-amine]: the IC50 was in the range of 50 to 100 nM. For the molecule `CO[C@@H]1CC[C@H]1COc1nc(N2CC3CCC(C2)N3)c2cc(C(F)(F)F)c(-c3ccc(F)c4sc(N)nc34)c(F)c2n1` [Example E168, 4-(4-(3,8-diazabicyclo[3.2.1]octan-3-yl)-8-fluoro-2-(((1S,2R)-2-methoxycyclobutyl)methoxy)-6-(trifluoromethyl)quinazolin-7-yl)-7-fluorobenzo[d]thiazol-2-amine], the half-maximal inhibitory concentration (IC50) is below 50 nM. With `COCC(CO)(COc1nc(N2CC3CCC(C2)N3)c2cc(C(F)(F)F)c(-c3ccc(F)c4sc(N)nc34)c(F)c2n1)OC` (stereo not drawn) [Example E169, 3-((7-(2-amino-7-fluorobenzo[d]thiazol-4-yl)-4-(3,8-diazabicyclo [3.2.1]octan-3-yl)-8-fluoro-6-(trifluoromethyl)quinazolin-2-yl)oxy)-2-methoxy-2-(methoxymethyl)propan-1-ol] the figure was below 50 nM. In the case of `Nc1nc2c(-c3c(C(F)(F)F)cc4c(N5CC6CCC(C5)N6)nc(OCC5COC(=O)N5)nc4c3F)ccc(F)c2s1` (stereo not drawn) [Example E170, 4-(((7-(2-amino-7-fluorobenzo[d]thiazol-4-yl)-4-(3,8-diazabicyclo [3.2.1]octan-3-yl)-8-fluoro-6-(trifluoromethyl)quinazolin-2-yl)oxy)methyl)oxazolidin-2-one], the IC50 was below 50 nM. On to `Nc1nc2c(-c3c(C(F)(F)F)cc4c(N5CC6CCC(C5)N6)nc(OCC5CS(=O)(=O)C5)nc4c3F)ccc(F)c2s1` [Example E171], for which the 50% inhibitory concentration (IC50) is below 50 nM. Take `Nc1nc2c(-c3c(C(F)(F)F)cc4c(N5CC6CCC(C5)N6)nc(OCCC5(CCO)COC5)nc4c3F)ccc(F)c2s1` [Example E172, 2-(3-(2-((7-(2-amino-7-fluorobenzo[d]thiazol-4-yl)-4-(3,8-diazabicyclo[3.2.1]octan-3-yl)-8-fluoro-6-(trifluoromethyl)quinazolin-2-yl)oxy)ethyl)oxetan-3-yl) ethan-1-ol]: the IC50 was below 50 nM.

Regarding `Nc1nc2c(-c3c(C(F)(F)F)cc4c(N5CC6CCC(C5)N6)nc(OCC5CC(O)C5)nc4c3F)ccc(F)c2s1` (stereo not drawn) [Example E173], the half-inhibitory concentration (IC50) is below 50 nM. As for `CC12CC(COc3nc(N4CC5CCC(C4)N5)c4cc(C(F)(F)F)c(-c5ccc(F)c6sc(N)nc56)c(F)c4n3)(CO1)C2` [Example E174, 4-(4-(3,8-diazabicyclo[3.2.1]octan-3-yl)-8-fluoro-2-((1-methyl-2-oxabicyclo[2.1.1]hexan-4-yl)methoxy)-6-(trifluoromethyl)quinazolin-7-yl)-7-fluorobenzo[d] thiazol-2-amine], the IC50 is below 50 nM. The value for `CS(=O)(=O)N1CC(COc2nc(N3CC4CCC(C3)N4)c3cc(C(F)(F)F)c(-c4ccc(F)c5sc(N)nc45)c(F)c3n2)C1` [Example E175, 4-(4-(3,8-diazabicyclo[3.2.1]octan-3-yl)-8-fluoro-2-((1-(methylsulfonyl)azetidin-3-yl)methoxy)-6-(trifluoromethyl)quinazolin-7-yl)-7-fluorobenzo[d]thiazol-2-amine] was below 50 nM; that for `COC1(COc2nc(N3CC4CCC(C3)N4)c3cc(C(F)(F)F)c(-c4ccc(F)c5sc(N)nc45)c(F)c3n2)COC1` [Example E176, 4-(4-(3,8-diazabicyclo[3.2.1]octan-3-yl)-8-fluoro-2-((3-methoxyoxetan-3-yl)methoxy)-6-(trifluoromethyl)quinazolin-7-yl)-7-fluorobenzo[d] thiazol-2-amine] was below 50 nM.

With `Nc1nc2c(-c3c(C(F)(F)F)cc4c(N5CC6CCC(C5)N6)nc(OC5CC(O)C5)nc4c3F)ccc(F)c2s1` (stereo not drawn) [Example E177, 3-((7-(2-amino-7-fluorobenzo[d]thiazol-4-yl)-4-(3,8-diazabicyclo [3.2.1]octan-3-yl)-8-fluoro-6-(trifluoromethyl)quinazolin-2-yl)oxy)cyclobutan-1-ol], the 50% inhibitory concentration (IC50) was below 50 nM.

Values taken from patent publication US20240140957A1, “BRIDGED COMPOUNDS AS KRAS G12D INHIBITOR AND DEGRADER AND THE USE THEREOF” (BeiGene Switzerland GmbH, priority 2021, published 2024).
